Patent US20220009918A1, “Chemical Compounds” (GlaxoSmithKline Intellectual Property Development Limited, priority 2018, published 2022)

Target: T1, human H-PGDS (Homo sapiens, UniProt O60760)
T1 construct: Full length human H-PGDS cDNA (Invitrogen Ultimate ORF IOH13026) was amplified by PCR; 6-His (N); TEV protease cleavage site (N); made in house; host or cells: E. coli BL21 (DE3*) for H-PGDS; Sf9 insect cells (baculovirus) for COX-2
Assay: H-PGDS RapidFire high throughput mass spectrometry assay
Format: biochemical
Settings: inhibition of conversion of PGH2 to PGD2 by H-PGDS; mean pIC50; read-out: Potency Range (mean pIC50) (converted)
Experimental: H-PGDS RapidFire™ High Throughput Mass Spectrometry Assay
The H-PGDS RapidFire™ mass spectrometric assay monitors conversion of prostaglandin H2 (PGH2) to prostaglandin D2 (PGD2) by haematopoietic prostaglandin D synthase (H-PGDS). In the assay format described here, the substrate (PGH2) is formed in situ by the action of cyclooxygenase-2 on arachidonic acid. This first step is set up to be fast, and generates a burst of PGH2 at ˜10 μM. The PGH2 is then further converted to PGD2 by the H-PGDS enzyme. […] Plates are then read on the RapidFire™ high throughput solid phase extraction system (Agilent) which incorporates a solid phase extraction step coupled to a triple quadrupole mass spectrometer (AB SCIEX). Relative levels of PGD2 and PGF2α, which acts as a surrogate for substrate, are measured and a percent conversion calculated. Inhibitors are characterised as compounds which lower the conversion of PGH2 to PGD2.
Full length human H-PGDS cDNA (Invitrogen Ultimate ORF IOH13026) was amplified by PCR with the addition of a 5′ 6-His tag and TEV protease cleavage site. The PCR product was digested with NdeI and XhoI and ligated into pET22b+ (Merck Novagen®). Expression was carried out in E. coli strain BL21 (DE3*) using auto-induction Overnight Express™ Instant TB medium (Merck Novagen®) supplemented with 1% glycerol. The culture was first grown at 37° C. and the temperature was reduced to 25° C. when OD600 reached 2.0. Cells were harvested by centrifugation after a further 18 hours. 10 g of E. coli cell pellet was suspended to a total volume of 80 mL in lysis buffer (20 mM Tris-Cl pH 7.5, 300 mM NaCl, 20 mM imidazole, 5 mM p-mercaptoethanol, 10% glycerol). 1 mg/mL protease inhibitors (Protease Inhibitor Cocktail Set III, Merck Calbiochem®) and 1 mg/mL lysozyme were added to the cell suspension. The suspension was then sonicated for 5 min (UltraSonic Processor VCX 750, Cole-Parmer Instrument Co.) with a micro probe (50% amplitude, 10 sec on/off) and then centrifuged at 100,000 g for 90 minutes (at 4° C.). The supernatant was loaded onto a Ni-NTA HiTrap column (5 mL, GE Healthcare, pre-equilibrated in lysis buffer). The column was washed with 10 column volumes of lysis buffer and eluted with lysis buffer containing 500 mM imidazole. The pooled protein peak fractions were concentrated using a 10 kDa centrifugal filter at 3500 g and 4° C. (Amicon Ultra-15 centrifugal filter unit with Ultracel-10 membrane from Millipore). Further purification of the concentrated protein was carried out using gel filtration chromatography on a HiLoad 26/600 Superdex 75 preparative grade column (GE Healthcare Life Sciences) using 50 mM Tris pH 7.5, 50 mM NaCl, 1 mM dithiothreitol, 1 mM MgCl2. Fractions containing the protein were pooled, concentrated as described above, and stored at −80° C.
The full length human COX-2 gene (accession number L15326) was amplified by PCR to generate an EcoRI—HindIII fragment containing an in-frame FLAG tag. This was subcloned into pFastBac 1 (Invitrogen). The COX-2 FLAG plasmid was recombined into the baculovirus genome according to the BAC-to-BAC protocol described by Invitrogen. Transfection into Spodoptera frugiperda (Sf9) insect cells was performed using Cellfectin (Invitrogen), according to the manufacturer's protocol. Super Sf9 cells were cultured in EX420 media (SAFC Biosciences) to a density of approximately 1.5×10^6 cells/mL within a wave bioreactor. Recombinant virus was added at a Multiplicity of Infection (MOI) of 5 and the culture was allowed to continue for 3 days. Cells were harvested using a continuous feed centrifuge run at 2500 g at a rate of approximately 2 L/min with cooling. The resultant cell slurry was re-centrifuged in pots (2500 g, 20 min, 4° C.) and the cell paste was stored at −80° C. […]

T1 sequence (O60760 whole entry): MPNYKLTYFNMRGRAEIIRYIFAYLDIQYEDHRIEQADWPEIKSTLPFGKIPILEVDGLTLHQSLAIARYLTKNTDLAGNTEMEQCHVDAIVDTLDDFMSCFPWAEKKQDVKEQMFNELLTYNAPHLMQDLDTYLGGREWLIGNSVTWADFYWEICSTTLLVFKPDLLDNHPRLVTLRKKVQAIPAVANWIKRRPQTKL

O=C(N[C@H]1CCNC1=O)c1cnc(-c2cccc(Cl)c2F)s1 [Example 8, (S)-2-(3-Chloro-2-fluorophenyl)-N-(2-oxopyrrolidin-3-yl)thiazole-5-carboxamide]
IC50: 10.2 to 100 nM

O=C(N[C@H]1CCNC1=O)c1cnc(-c2cc(Cl)cc(Cl)c2)s1 [Example 9, (S)-2-(3,5-Dichlorophenyl)-N-(2-oxopyrrolidin-3-yl)thiazole-5-carboxamide]
IC50: 1.02 to 10 nM

O=C(N[C@H]1CCNC1=O)c1cnc(-c2cccc(C(F)F)c2)s1 [Example 10, (S)-2-(3-(Difluoromethyl)phenyl)-N-(2-oxopyrrolidin-3-yl)thiazole-5-carboxamide]
IC50: 10.2 to 100 nM

C[C@@H]1CNC(=O)[C@H]1NC(=O)c1cnc(-c2cc(F)cc(Cl)c2)s1 [Example 11, 2-(3-Chloro-5-fluorophenyl)-N-((3S,4R)-4-methyl-2-oxopyrrolidin-3-yl)thiazole-5-carboxamide]
IC50: 1.02 to 10 nM

O=C(N[C@H]1CCNC1=O)c1cnc(-c2cc(F)cc(C(F)F)c2)s1 [Example 12, (S)-2-(3-(Difluoromethyl)-5-fluorophenyl)-N-(2-oxopyrrolidin-3-yl)thiazole-5-carboxamide]
IC50: 1.02 to 10 nM

C[C@@H]1CNC(=O)[C@H]1NC(=O)c1cnc(-c2cc(F)cc(C(F)F)c2)s1 [Example 13, 2-(3-(Difluoromethyl)-5-fluorophenyl)-N-((3S,4R)-4-methyl-2-oxopyrrolidin-3-yl)thiazole-5-carboxamide]
IC50: 1.02 to 10 nM

NC(=O)CN1CC[C@H](NC(=O)c2cnc(-c3cc(F)cc(F)c3)s2)C1=O [Example 17, (S)-N-(1-(2-Amino-2-oxoethyl)-2-oxopyrrolidin-3-yl)-2-(3,5-difluorophenyl)thiazole-5-carboxamide]
IC50: 102 to 1000 nM

CC1(C)CNC(=O)[C@H]1NC(=O)c1cnc(-c2cc(F)cc(Cl)c2)s1 [Example 19, (S)-2-(3-Chloro-5-fluorophenyl)-N-(4,4-dimethyl-2-oxopyrrolidin-3-yl)thiazole-5-carboxamide]
IC50: 10.2 to 100 nM

O=C(N[C@H]1CC2(CC2)NC1=O)c1cnc(-c2cc(F)cc(Cl)c2)s1 [Example 21, (S)-2-(3-Chloro-5-fluorophenyl)-N-(5-oxo-4-azaspiro[2.4]heptan-6-yl)thiazole-5-carboxamide]
IC50: 1.02 to 10 nM

O=C(N[C@@H]1CC2(CC2)NC1=O)c1cnc(-c2cc(F)cc(Cl)c2)s1 [Example 22, (R)-2-(3-Chloro-5-fluorophenyl)-N-(5-oxo-4-azaspiro[2.4]heptan-6-yl)thiazole-5-carboxamide]
IC50: 102 to 1000 nM

CCC1(CC)CNC(=O)[C@@H]1NC(=O)c1cnc(-c2cc(F)cc(Cl)c2)s1 [Example 24, (R)-2-(3-Chloro-5-fluorophenyl)-N-(4,4-diethyl-2-oxopyrrolidin-3-yl)thiazole-5-carboxamide]
IC50: 1020 to 10000 nM

CCC1(CC)CNC(=O)[C@H]1NC(=O)c1cnc(-c2cc(F)cc(Cl)c2)s1 [Example 25, (S)-2-(3-Chloro-5-fluorophenyl)-N-(4,4-diethyl-2-oxopyrrolidin-3-yl)thiazole-5-carboxamide]
IC50: 10.2 to 100 nM

O=C(N[C@@H]1CCNC1=O)c1cnc(-c2cc(F)cc(Cl)c2)s1 [Example 26, (R)-2-(3-Chloro-5-fluorophenyl)-N-(2-oxopyrrolidin-3-yl)thiazole-5-carboxamide]
IC50: 102 to 1000 nM

O=C(N[C@@H]1CC2(CCC2)NC1=O)c1cnc(-c2cc(F)cc(Cl)c2)s1 [Example 28, (R)-2-(3-Chloro-5-fluorophenyl)-N-(6-oxo-5-azaspiro[3.4]octan-7-yl)thiazole-5-carboxamide]
IC50: 102 to 1000 nM

O=C(N[C@H]1CC2(CCC2)NC1=O)c1cnc(-c2cc(F)cc(Cl)c2)s1 [Example 29, (S)-2-(3-Chloro-5-fluorophenyl)-N-(6-oxo-5-azaspiro[3.4]octan-7-yl)thiazole-5-carboxamide]
IC50: 1.02 to 10 nM

Cc1nc(-c2cccc(Cl)c2)sc1C(=O)N[C@H]1CCNC1=O [Example 30, (S)-2-(3-Chlorophenyl)-4-methyl-N-(2-oxopyrrolidin-3-yl)thiazole-5-carboxamide]
IC50: 10.2 to 100 nM

Cc1cnn(-c2ncc(C(=O)N[C@H]3CCNC3=O)s2)c1 [Example 31, (S)-2-(4-Methyl-1H-pyrazol-1-yl)-N-(2-oxopyrrolidin-3-yl)thiazole-5-carboxamide]
IC50: 1020 to 10000 nM

Cc1cn(-c2ncc(C(=O)N[C@H]3CCNC3=O)s2)cn1 [Example 32, (S)-2-(4-Methyl-1H-imidazol-1-yl)-N-(2-oxopyrrolidin-3-yl)thiazole-5-carboxamide]
IC50: 1020 to 10000 nM

O=C(N[C@H]1CCNC1=O)c1cnc(-c2ccccc2)s1 [Example 33, (S)-N-(2-Oxopyrrolidin-3-yl)-2-phenylthiazole-5-carboxamide]
IC50: 10.2 to 100 nM

C[C@H]1[C@H](C)NC(=O)[C@@H]1NC(=O)c1cnc(-c2cc(F)cc(Cl)c2)s1 [Example 35, 2-(3-Chloro-5-fluorophenyl)-N-((3R,4S,5S)-4,5-dimethyl-2-oxopyrrolidin-3-yl)thiazole-5-carboxamide]
IC50: 102 to 1000 nM

C[C@H]1[C@H](NC(=O)c2cnc(-c3cc(F)cc(Cl)c3)s2)C(=O)N[C@@H]1C [Example 36, 2-(3-Chloro-5-fluorophenyl)-N-((3S,4R,5R)-4,5-dimethyl-2-oxopyrrolidin-3-yl)thiazole-5-carboxamide]
IC50: 10.2 to 100 nM

O=C(N[C@H]1CCNC1=O)c1cnc(-c2cccc(Br)c2)s1 [Example 37, (S)-2-(3-Bromophenyl)-N-(2-oxopyrrolidin-3-yl)thiazole-5-carboxamide]
IC50: 10.2 to 100 nM

O=C(N[C@H]1CCNC1=O)c1cnc(-c2ccncc2)s1 [Example 38, (S)-N-(2-Oxopyrrolidin-3-yl)-2-(pyridin-4-yl)thiazole-5-carboxamide]
IC50: 1020 to 10000 nM

O=C(N[C@H]1CCNC1=O)c1cnc(-c2ccccn2)s1 [Example 39, (S)-N-(2-Oxopyrrolidin-3-yl)-2-(pyridin-2-yl)thiazole-5-carboxamide]
IC50: 102 to 1000 nM

O=C(N[C@H]1CCNC1=O)c1cnc(-c2cccnc2)s1 [Example 40, (S)-N-(2-Oxopyrrolidin-3-yl)-2-(pyridin-3-yl)thiazole-5-carboxamide]
IC50: 102 to 1000 nM

C[C@H]1C[C@@H](NC(=O)c2cnc(-c3cc(F)cc(Cl)c3)s2)C(=O)N1 [Example 41, 2-(3-Chloro-5-fluorophenyl)-N-((3R,5S)-5-methyl-2-oxopyrrolidin-3-yl)thiazole-5-carboxamide]
IC50: 10.2 to 100 nM

Cc1ccnc(-c2ncc(C(=O)N[C@H]3CCNC3=O)s2)n1 [Example 42, (S)-2-(4-Methylpyrimidin-2-yl)-N-(2-oxopyrrolidin-3-yl)thiazole-5-carboxamide]
IC50: 102 to 1000 nM

N#Cc1cccc(-c2ncc(C(=O)N[C@H]3CCNC3=O)s2)c1 [Example 43, (S)-2-(3-Cyanophenyl)-N-(2-oxopyrrolidin-3-yl)thiazole-5-carboxamide]
IC50: 102 to 1000 nM

Cc1ccc(-c2ncc(C(=O)N[C@H]3CCNC3=O)s2)cc1 [Example 44, (S)-N-(2-Oxopyrrolidin-3-yl)-2-(p-tolyl)thiazole-5-carboxamide]
IC50: 1020 to 10000 nM

O=C(N[C@H]1CCNC1=O)c1cnc(-c2cccc(F)c2)s1 [Example 45, (S)-2-(3-Fluorophenyl)-N-(2-oxopyrrolidin-3-yl)thiazole-5-carboxamide]
IC50: 10.2 to 100 nM

Cc1cccc(-c2ncc(C(=O)N[C@H]3CCNC3=O)s2)n1 [Example 46, (S)-2-(6-Methylpyridin-2-yl)-N-(2-oxopyrrolidin-3-yl)thiazole-5-carboxamide]
IC50: 102 to 1000 nM
